Test results published in ChEMBL document CHEMBL1201861, “Genomics of Drug Sensitity in Cancer screening data, Wellcome Trust Sanger Institute”.

Key:
Assay in all cases: cells
Assay type in all cases: functional, cell-based, Homo sapiens
[1] = test system: OC-314; conditions: Homo sapiens, OC-314
Description: SANGER: Inhibition of human OC-314 cell growth in a cell viability assay.

[2] = test system: BT-549; conditions: Homo sapiens, BT-549
Description: SANGER: Inhibition of human BT-549 cell growth in a cell viability assay.

[3] = test system: HLE; conditions: Homo sapiens, HLE;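 further: growth inhibition of human HLE cells, read out by a cell viability assay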
Description: SANGER: Inhibition of human HLE cell growth in a cell viability assay.

[4] = test system: Huh-7; conditions: Homo sapiens, Huh-7;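 further: HuH-7 cell growth inhibition, read out with a cell viability assay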
Description: SANGER: Inhibition of human HuH-7 cell growth in a cell viability assay.

[5] = test system: HPAF-II; conditions: Homo sapiens, HPAF-II;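 further: growth inhibition of HPAF-II cells, read out with a cell viability assay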
Description: SANGER: Inhibition of human HPAF-II cell growth in a cell viability assay.

[6] = test system: SW1990; conditions: Homo sapiens, SW1990;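 further: cell growth inhibition determined with a viability assay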
Description: SANGER: Inhibition of human SW1990 cell growth in a cell viability assay.

[7] = test system: ME-180; conditions: Homo sapiens, ME-180;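 further: cell viability assay measuring growth inhibition of ME-180 cells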
Description: SANGER: Inhibition of human ME-180 cell growth in a cell viability assay.

[8] = test system: A549; conditions: Homo sapiens, A549;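 further: growth inhibition of A549 cells, read out with a cell viability assay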
Description: SANGER: Inhibition of human A549 cell growth in a cell viability assay.

[9] = test system: A 172; conditions: Homo sapiens, A 172;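 further: growth inhibition of A172 cells, measured with a cell viability readout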
Description: SANGER: Inhibition of human A172 cell growth in a cell viability assay.

[10] = test system: BFTC-909; conditions: Homo sapiens, BFTC-909
Description: SANGER: Inhibition of human BFTC-909 cell growth in a cell viability assay.

[11] = test system: KNS-62; conditions: Homo sapiens, KNS-62;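 further: inhibition of cell growth, read out with a cell viability assay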
Description: SANGER: Inhibition of human KNS-62 cell growth in a cell viability assay.

[12] = test system: SNU-423; conditions: Homo sapiens, SNU-423
Description: SANGER: Inhibition of human SNU-423 cell growth in a cell viability assay.

[13] = test system: SN12C; conditions: Homo sapiens, SN12C;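 further: growth inhibition of human SN12C cells, measured by a cell viability assay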
Description: SANGER: Inhibition of human SN12C cell growth in a cell viability assay.

[14] = test system: NCI-H2347; conditions: Homo sapiens, NCI-H2347;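 further: growth inhibition of the cell line, read out with a cell viability assay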
Description: SANGER: Inhibition of human NCI-H2347 cell growth in a cell viability assay.

[15] = test system: HCC1395; conditions: Homo sapiens, HCC1395;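 further: growth inhibition of HCC1395 cells, read out by a cell viability assay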
Description: SANGER: Inhibition of human HCC1395 cell growth in a cell viability assay.

[16] = test system: RCM-1; conditions: Homo sapiens, RCM-1;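 further: growth inhibition of the RCM-1 line, determined with a cell viability readout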
Description: SANGER: Inhibition of human RCM-1 cell growth in a cell viability assay.

[17] = test system: NCI-H2052; conditions: Homo sapiens, NCI-H2052;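 further: growth inhibition of NCI-H2052 cells, read out with a cell viability assay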
Description: SANGER: Inhibition of human NCI-H2052 cell growth in a cell viability assay.

[18] = test system: Hs-578T; conditions: Homo sapiens, Hs-578T
Description: SANGER: Inhibition of human Hs-578-T cell growth in a cell viability assay.

[19] = test system: KYSE-270; conditions: Homo sapiens, KYSE-270;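 further: cell growth inhibition measured with a viability assay in the human KYSE-270 line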
Description: SANGER: Inhibition of human KYSE-270 cell growth in a cell viability assay.

[20] = test system: LCLC-103H cell line; conditions: Homo sapiens, LCLC-103H
Description: SANGER: Inhibition of human LCLC-103H cell growth in a cell viability assay.

[21] = test system: 8305C; conditions: Homo sapiens, 8305C
Description: SANGER: Inhibition of human 8305C cell growth in a cell viability assay.

[22] = test system: KYSE-520 cell line; conditions: Homo sapiens, KYSE-520;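 further: growth inhibition of human KYSE-520 cells, read out with a viability assay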
Description: SANGER: Inhibition of human KYSE-520 cell growth in a cell viability assay.

[23] = test system: GAMG; conditions: Homo sapiens, GAMG;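 further: cell growth inhibition measured by a viability assay in the GAMG human cell line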
Description: SANGER: Inhibition of human GAMG cell growth in a cell viability assay.

[24] = test system: NCI-H727; conditions: Homo sapiens, NCI-H727;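 further: growth inhibition of human NCI-H727 cells, read out with a cell viability assay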
Description: SANGER: Inhibition of human NCI-H727 cell growth in a cell viability assay.

[25] = test system: IGROV-1; conditions: Homo sapiens, IGROV-1;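 further: reduction of IGROV-1 cell growth, read out with a viability assay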
Description: SANGER: Inhibition of human IGROV-1 cell growth in a cell viability assay.

[26] = test system: 786-0; conditions: Homo sapiens
Description: SANGER: Inhibition of human 786-0 cell growth in a cell viability assay.

[27] = test system: C-33-A; conditions: Homo sapiens, C-33-A;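 further: cell viability assay measuring growth inhibition of C-33-A cells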
Description: SANGER: Inhibition of human C-33-A cell growth in a cell viability assay.

[28] = test system: NCI-H2087; conditions: Homo sapiens, NCI-H2087;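 further: growth inhibition determined with a cell viability readout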
Description: SANGER: Inhibition of human NCI-H2087 cell growth in a cell viability assay.

[29] = test system: 639-V; conditions: Homo sapiens, 639-V;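 further: growth inhibition of 639-V cells, read out with a cell viability assay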
Description: SANGER: Inhibition of human 639-V cell growth in a cell viability assay.

[30] = test system: EFM-19; conditions: Homo sapiens, EFM-19;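 further: growth inhibition of human EFM-19 cells, measured in a cell viability assay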
Description: SANGER: Inhibition of human EFM-19 cell growth in a cell viability assay.

[31] = test system: SW1783; conditions: Homo sapiens, SW1783;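 further: cell growth inhibition measured with a viability assay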
Description: SANGER: Inhibition of human SW1783 cell growth in a cell viability assay.

[32] = test system: NCI-H28; conditions: Homo sapiens, NCI-H28;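 further: growth inhibition of human NCI-H28 cells, read out as cell viability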
Description: SANGER: Inhibition of human NCI-H28 cell growth in a cell viability assay.

[33] = test system: Detroit 562; conditions: Homo sapiens, Detroit 562;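 further: growth inhibition of human Detroit 562 cells, read out by a cell viability assay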
Description: SANGER: Inhibition of human Detroit562 cell growth in a cell viability assay.

[34] = test system: HSC-3; conditions: Homo sapiens, HSC-3
Description: SANGER: Inhibition of human HSC-3 cell growth in a cell viability assay.

[35] = test system: HSC-4; conditions: Homo sapiens, HSC-4;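 further: growth inhibition of human HSC-4 cells, read out with a cell viability assay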
Description: SANGER: Inhibition of human HSC-4 cell growth in a cell viability assay.

[36] = test system: MDA-MB-175-VII; conditions: Homo sapiens, MDA-MB-175-VII
[37] = test system: NCI-H1693; conditions: Homo sapiens, NCI-H1693;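 further: growth inhibition of the human cell line, read out with a cell viability assay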
Description: SANGER: Inhibition of human NCI-H1693 cell growth in a cell viability assay.

[38] = test system: EFO-21; conditions: Homo sapiens, EFO-21;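 further: growth inhibition of EFO-21 cells measured with a viability assay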
Description: SANGER: Inhibition of human EFO-21 cell growth in a cell viability assay.

[39] = test system: M14; conditions: Homo sapiens, M14;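 further: growth inhibition of M14 cells, read out with a cell viability assay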
Description: SANGER: Inhibition of human M14 cell growth in a cell viability assay.

Structure (SMILES)	IC50 [1] [µM]	IC50 [2] [µM]	IC50 [3] [µM]	IC50 [4] [µM]	IC50 [5] [µM]	IC50 [8] [µM]	IC50 [9] [µM]	IC50 [10] [µM]	IC50 [11] [µM]	IC50 [12] [µM]	IC50 [15] [µM]	IC50 [16] [µM]	IC50 [18] [µM]	IC50 [19] [µM]	IC50 [20] [µM]	IC50 [23] [µM]	IC50 [24] [µM]	IC50 [25] [µM]	IC50 [26] [µM]	IC50 [27] [µM]	further results
Cc1cn(-c2cc(NC(=O)c3ccc(C)c(Nc4nccc(-c5cccnc5)n4)c3)cc(C(F)(F)F)c2)cn1 [NILOTINIB]	> 2	> 2	> 2	> 2	> 2	> 2	> 2	> 2	> 2	> 2	> 2	> 2	> 2	> 2	> 2	> 2	> 2	> 2	> 2	> 2	IC50 [6]: > 2 µM; IC50 [7]: > 2 µM; IC50 [13]: > 2 µM; IC50 [14]: > 2 µM; IC50 [17]: > 2 µM; IC50 [21]: > 2 µM; IC50 [22]: > 2 µM; IC50 [28]: > 2 µM; IC50 [29]: > 2 µM; IC50 [30]: > 2 µM; IC50 [31]: > 2 µM; IC50 [32]: > 2 µM; IC50 [33]: > 2 µM; IC50 [34]: > 2 µM; IC50 [35]: > 2 µM; IC50 [36]: > 2 µM; IC50 [37]: > 2 µM; IC50 [38]: > 2 µM; IC50 [39]: > 2 µM
Nc1cccc2c1CN(C1CCC(=O)NC1=O)C2=O (configuration not stated) [LENALIDOMIDE]	> 5	> 5	> 5	> 5	> 5	> 5	> 5	> 5	> 5	> 5	> 5	> 5	> 5	> 5	> 5	> 5	> 5	> 5	> 5	> 5	IC50 [6]: > 5 µM; IC50 [7]: > 5 µM; IC50 [13]: > 5 µM; IC50 [14]: > 5 µM; IC50 [17]: > 5 µM; IC50 [21]: > 5 µM; IC50 [22]: > 5 µM; IC50 [28]: > 5 µM; IC50 [29]: > 5 µM; IC50 [30]: > 5 µM; IC50 [31]: > 5 µM; IC50 [32]: > 5 µM; IC50 [33]: > 5 µM; IC50 [34]: > 5 µM; IC50 [35]: > 5 µM; IC50 [36]: > 5 µM; IC50 [37]: > 5 µM; IC50 [38]: > 5 µM; IC50 [39]: > 5 µM
CCN(CC)CCCCNc1ncc2cc(-c3cc(OC)cc(OC)c3)c(NC(=O)NC(C)(C)C)nc2n1 [PD-173074]	> 2	> 2	> 2	1.24	> 2	> 2	1.7	> 2	> 2	> 2	> 2	> 2	> 2	> 2	> 2	> 2	> 2	> 2	> 2	> 2	IC50 [6]: > 2 µM; IC50 [7]: > 2 µM; IC50 [13]: > 2 µM; IC50 [14]: > 2 µM; IC50 [17]: > 2 µM; IC50 [21]: > 2 µM; IC50 [22]: > 2 µM; IC50 [28]: > 2 µM; IC50 [29]: > 2 µM; IC50 [30]: > 2 µM; IC50 [31]: > 2 µM; IC50 [32]: > 2 µM; IC50 [33]: > 2 µM; IC50 [34]: > 2 µM; IC50 [36]: > 2 µM; IC50 [37]: > 2 µM; IC50 [38]: > 2 µM; IC50 [39]: > 2 µM
COc1cc2c(Nc3ccc(NC(=O)c4ccccc4)cc3)ncnc2cc1OCCCN1CCOCC1	> 4	> 4	> 4	> 4	> 4	2.64	0.984	> 4	> 4	> 4	> 4	> 4	> 4	> 4	> 4	> 4	> 4	> 4	> 4	> 4	IC50 [6]: > 4 µM; IC50 [7]: > 4 µM; IC50 [13]: > 4 µM; IC50 [14]: > 4 µM; IC50 [17]: > 4 µM; IC50 [21]: > 4 µM; IC50 [22]: > 4 µM; IC50 [28]: > 4 µM; IC50 [29]: > 4 µM; IC50 [30]: > 4 µM; IC50 [31]: > 4 µM; IC50 [32]: > 4 µM; IC50 [33]: 1.73 µM; IC50 [34]: 3.37 µM; IC50 [36]: > 4 µM; IC50 [37]: > 4 µM; IC50 [38]: 3.11 µM; IC50 [39]: > 4 µM
CN(C)C(=N)NC(=N)N [METFORMIN]	> 20000	4200	9860	15500	7740	4540	17500	> 20000	> 20000	> 20000	> 20000	> 20000	> 20000	> 20000	> 20000	> 20000	> 20000	> 20000	> 20000	9400	IC50 [7]: > 20000 µM; IC50 [28]: > 20000 µM; IC50 [29]: > 20000 µM; IC50 [31]: > 20000 µM; IC50 [32]: 12000 µM; IC50 [33]: 16500 µM; IC50 [34]: > 20000 µM; IC50 [35]: 5480 µM; IC50 [36]: > 20000 µM; IC50 [37]: > 20000 µM; IC50 [38]: > 20000 µM; IC50 [39]: > 20000 µM
CC1(C)CNc2cc(NC(=O)c3cccnc3NCc3ccncc3)ccc21 [MOTESANIB]	> 2	> 2	> 2	> 2	> 2	> 2	> 2	> 2	> 2	> 2	> 2	> 2	> 2	> 2	> 2	> 2	> 2	> 2	> 2	> 2	IC50 [6]: > 2 µM; IC50 [7]: > 2 µM; IC50 [13]: > 2 µM; IC50 [14]: > 2 µM; IC50 [17]: > 2 µM; IC50 [21]: > 2 µM; IC50 [22]: > 2 µM; IC50 [28]: > 2 µM; IC50 [29]: > 2 µM; IC50 [30]: > 2 µM; IC50 [31]: > 2 µM; IC50 [32]: > 2 µM; IC50 [33]: > 2 µM; IC50 [34]: > 2 µM; IC50 [36]: > 2 µM; IC50 [37]: > 2 µM; IC50 [38]: > 2 µM; IC50 [39]: > 2 µM
CC(C)c1ccccc1Cc1cc(C(=O)Nc2ccc(S(=O)(=O)c3ccccc3C(C)(C)C)cc2)c(O)c(O)c1O	0.21	0.68	0.121	0.0328	0.228	0.0141	0.794	0.258	0.559	0.325	7.11	3.39	0.0236	1.08	0.21	0.212	0.941	0.454	6.97	0.109	IC50 [6]: 1.67 µM; IC50 [13]: 1.11 µM; IC50 [14]: 1.22 µM; IC50 [17]: 1.39 µM; IC50 [21]: 3.91 µM; IC50 [22]: 4.14 µM; IC50 [28]: 0.575 µM; IC50 [29]: 0.521 µM; IC50 [30]: 1.59 µM; IC50 [31]: 0.213 µM; IC50 [32]: 0.447 µM; IC50 [33]: 1.27 µM; IC50 [34]: 0.286 µM; IC50 [35]: 0.213 µM; IC50 [36]: 0.451 µM; IC50 [37]: 1.25 µM; IC50 [38]: 2.6 µM; IC50 [39]: 2.83 µM
